The record followed here is patent US6288082A, “Substituted 3-cyanoquinolines” (priority 1999, dated 2001).

Structures are written as SMILES. Where “and” joins values, the source holds several entries; their conditions need not be identical. Equal values may be shown once. Where a name gives a salt, the structure may show the parent alone.

The target of the first assay is Mitogen Activated Protein Kinase (Mek-Erk). In words: Mitogen Activated Protein Kinase (MAPK) assay, coupled Mek-Erk. It is filed as biochemical, human. To be noted: MBP or Myc peptide substrate, pH 7.4. The procedure: Mitogen Activated Protein Kinase (MAPK) Assay
To evaluate inhibitors of the MAP (mitogen activated protein) kinase a two component coupled standard pharmacological test procedure, which measures phosphorylation of a serine/threonine residue in an appropriate sequence in the substrate in the presence and absence of a putative inhibitor, was used. Recombinant human MEK 1 (MAPKK) was first used to activate recombinant human ERK2 (MAPK) and the activated MAPK (ERK) was incubated with substrate (MBP peptide or MYC peptide) in the presence of ATP, Mg^+2 and radiolabeled ^33 P ATP. The phosphorylated peptide was captured on a P 81 phosphocellulose filter (paper filter or embedded in microtiter plate) washed and counted by scintillation methods.
The peptide substrates used in the assay are MBP, peptide substrate ([…]), or synthetic Myc substrate, ([…]·5 TFA. The recombinant enzymes used were prepared as GST fusion proteins of human ERK 2 and human MEK 1. Inhibitor samples were prepared as 10×stocks in 10% DMSO and an appropriate aliquot was used to deliver either 10 ug/ml for a single point screening dose or 100, 10, 1, and 0.1 uM final concentration for a dose response curve. Final DMSO concentrations were less than or equal to 1%.
The reaction was run as follows in 50 mM Tris kinase buffer, pH 7.4 in a reaction volume of 50 ul. The appropriate volume of kinase buffer and inhibitor sample was added to the tube. Appropriate dilution of enzyme was delivered to give 2-5 ug recombinant MAPK (Erk ) per tube. The inhibitor was incubated with MAPK (Erk) for 30 min at 0 deg. C. Recombinant Mek (MAPKK) (0.5-2.5 ug) or fully activated Mek (0.05-0.1 units) was added to activate the Erk and incubated for 30 min at 30° C. Then substrate and gamma ^33 P ATP was were added to give a final concentration of 0.5-1 mM MBPP or 250-500 uM Myc; 0.2-0.5 uCi gamma P 33 ATP/tube; 50 μM ATP final concentration. Samples were incubated at 30° C. for 30 minutes and the reaction was stopped by adding 25 μl of ice cold 10% TCA. After samples were chilled on ice for 30 min, 20 μl of sample was transferred onto P 81 phosphocellulose filter paper or appropriate MTP with embedded P 81 filter. Filter papers or MTP were washed 2 times with a large volume of 1% acetic acid, then 2 times with water. The filters or MTP were briefly air dried before addition of scintillant and samples were counted in the appropriate scintillation counter set up for reading ^33 P isotope. Samples included a positive control (activated enzyme plus substrate); a no enzyme control; a no substrate control; samples with different concentrations of putative inhibitor; and samples with reference inhibitors (other active compounds or non-specific inhibitors such as staurosporine or K252 B).
The raw data was captured as cpm. Sample replicates were averaged and corrected for background count. Mean cpm data was tabulated by group and % inhibition by a test compound was calculated as (corrected cpm control-corrected. cpm sample/control)×100=% inhibition. […] The results obtained for representative compounds of this invention are listed in TABLE 2 where there may be separate entries for the same compound; this is an indication that the compound was evaluated more than one time.
`COc1cc2c(Nc3ccc4nn[nH]c4c3)c(C#N)cnc2c(OC)c1OC` [Example 156, 4-(3H-Benzotriazol-5-ylamino)-6,7,8-Trimethoxy-quinoline-3-carbonitrile] displayed an IC50 of 35 µM.

The compound `COc1cc2ncc(C#N)c(Nc3cccc4c3CCCC4)c2cc1OC` [Example 155, 6,7-Dimethoxy-4-(5,6,7,8,-tetrahydro-naphthalen-1-ylamino)-quinoline-3-carbonitrile] showed an IC50 of 4 µM.

For the compound `COc1cc2ncc(C#N)c(Nc3ccc4ncccc4c3)c2cc1OC` [Example 153, 6,7-Dimethoxy-4-(quinoline-6-ylamino)-quinoline-3-carbonitrile], the IC50 is more than 100 µM.

In the case of `COc1cc2ncc(C#N)c(Nc3ccc4cn[nH]c4c3)c2cc1OCCCN1CCOCC1` [Example 139, 4-(1H-Indazol-6-ylamino)-7-methoxy-6-(3-morpholine-4-yl-propoxy)-quinoline-3-carbonitrile hydrochloride], inhibition was half-maximal at 15 µM (IC50). This counts as double-digit micromolar.

The compound `COc1cccc2c(Nc3ccc4cn[nH]c4c3)c(C#N)cnc12` [Example 148, 4-(1H-Indazol-6-ylamino)-8-methoxy-quinoline-3-carbonitrile] had an IC50 of more than 100 µM.

`N#Cc1cnc2cc3c(cc2c1Nc1ccc2cn[nH]c2c1)OCCO3` [Example 125, 9-(1H-Indazol-6-ylamino)-2,3-dihydro[1,4]dioxino[2,3-g]quinoline-8-carbonitrile]: the midpoint of inhibition, the IC50, lay at 35 µM. That is a double-digit micromolar value.

Take `COc1ccc2c(Nc3ccc4[nH]ccc4c3)c(C#N)cnc2c1` [Example 146, 4-(1H-Indol-5-ylamino)-7-methoxy-quinoline-3-carbonitrile]: the IC50 was 3 µM. Compared with the last compound, the IC50 is about 12-fold lower.

For the compound `COc1ccc2ncc(C#N)c(Nc3ccc4nn[nH]c4c3)c2c1` [Example 142, 4-(3H-Benzotriazol-5-ylamino)-6-methoxy-quinoline-3-carbonitrile], the IC50 is 30 µM.

In the case of `COc1cccc2c(Nc3ccc4nn[nH]c4c3)c(C#N)cnc12` [Example 149, 4-(3H-benzotriazol-5-ylamino)-8-methoxy-quinoline-3-carbonitrile], the half-maximal inhibitory concentration (IC50) is more than 100 µM.

`CCOc1cc2ncc(C#N)c(Nc3ccc4[nH]c(=O)oc(=O)c4c3)c2cc1OCC` [Example 109, 4-(2,4-Dioxo-1,4-dihydro-2H-benzo[d][1,3]oxazin-6-ylamino)-6,7-diethoxy-quinoline-3-carbonitrile]: the IC50 was more than 100 µM.

`COc1cc2ncc(C#N)c(Nc3ccc4[nH]c(=O)sc4c3)c2cc1OC` [Example 131, 6,7-Dimethoxy-4-(2-oxo-2,3-dihydro-benzothiazol-6-ylamino)-quinoline-3-carbonitrile] came in with an IC50 of more than 100 µM.

In turn, `COc1cc2ncc(C#N)c(Nc3cccc4cccnc34)c2cc1OC` [Example 134, 6,7-Dimethoxy-4-(quinolin-8-ylamino)-quinoline-3-carbonitrile] showed an IC50 of more than 100 µM.

On to `COc1cc2ncc(C#N)c(Nc3ccc4sc(C)nc4c3)c2cc1OC` [Example 130, 6,7-Dimethoxy-4-(2-methyl-benzothiazol-5-ylamino)-quinoline-3-carbonitrile], for which the IC50 was more than 100 µM.

Compound `COc1cc2ncc(C#N)c(Nc3cccc4cnccc34)c2cc1OC` [Example 133, 4-(Isoquinolin-5-ylamino)-6,7-dimethoxy-quinoline-3-carbonitrile] yielded an IC50 of 90 µM.

`COc1cc2ncc(C#N)c(Nc3ccc4c(C)cc(=O)[nH]c4c3)c2cc1OC` [Example 129, 6,7-Dimethoxy-4-(4-methyl-2-oxo-1,2-dihydro-quinolin-7-ylamino)-quinoline-3-carbonitrile] came in with an IC50 of more than 100 µM.

Turning to `CCOc1cc2c(Nc3ccc4cn[nH]c4c3)c(C#N)cnc2cc1OC` [Example 126, 6-Ethoxy-4-(1H-indazol-6-ylamino)-7-methoxyquinoline-3-carbonitrile], the IC50 is more than 100 µM.

For the compound `COc1cc2c(Nc3ccc4cn[nH]c4c3)c(C#N)cnc2c(OC)c1OC` [Example 128, 4-(1H-Indazol-6-ylamino)-6,7,8-trimethoxy-quinoline-3-carbonitrile], the IC50 was > 100 µM and 100 µM.

`COc1cc2ncc(C#N)c(Nc3ccc4[nH]c(C)nc4c3)c2cc1OC` [Example 152, 6,7-Dimethoxy-4-(2-methyl-1H-benzoimidazol-5-ylamino)-quinoline-3-carbonitrile] came in with an IC50 of more than 100 µM.

As to `CCOc1cc2ncc(C#N)c(Nc3ccc4c(c3)S(=O)(=O)C=C4)c2cc1OCC` [Example 112, 4-(1,1-Dioxo-1H-benzo[b]thiophen-6-ylamino)-6,7-diethoxy-quinoline-3-carbonitrile], the IC50 was more than 100 µM.

Regarding `COc1ccc2c(Nc3ccc4[nH]nnc4c3)c(C#N)cnc2c1` [Example 144, 4-(3H-benzotriazol-5-ylamino)-7-methoxy-quinoline-3-carbinitile], the IC50 was more than 100 µM.

The compound `COc1cc2ncc(C#N)c(Nc3ccc(O)c4ncccc34)c2cc1OC` [Example 135, 4-(8-Hydroxy-quinolin-5-ylamino)-6,7-dimethoxy-quinoline-3-carbonitrile] returned an IC50 of more than 100 µM.

Compound `CCOc1cc2ncc(C#N)c(Nc3ccc4ncsc4c3)c2cc1OCC` [Example 97, 4-(Benzothiazol-6-ylamino)-6,7-diethoxy-quinoline-3-carbonitrile HCl Salt] showed an IC50 of 55 µM.

In the case of `COc1ccc2c(Nc3ccc4cn[nH]c4c3)c(C#N)cnc2c1` [Example 143, 4-(1H-Indazol-6-ylamino)-7-methoxy-quinoline-3-carbonitrile], half-maximal inhibition (IC50) was put at 6 µM.

As for `COc1cc2ncc(C#N)c(Nc3cccc4ncccc34)c2cc1OC` [Example 132, 6,7-Dimethoxy-4-(quinolin-5-ylamino)-quinoline-3-carbonitrile], half-maximal inhibition (IC50) required 90 µM.

Compound `CCOc1cc2ncc(C#N)c(Nc3ccc4c(c3)C(=O)NC4=O)c2cc1OCC` [Example 104, 4-(1,3-Dioxo-2,3-dihydro-1H-isoindol-5-ylamino)-6,7-diethoxy-quinoline-3-carbonitrile] showed an IC50 of 35 µM. Against the preceding compound, the IC50 is about 2.6-fold lower.

Compound `COc1cc2c(Nc3ccc4cn[nH]c4c3)c(C#N)cnc2cc1OCCN(C)C` [Example 167, 7-(2-Dimethylaminoethoxy)-4-(1H-indazol-6-ylamino)-6-methoxyquinoline-3-carbonitrile] had an IC50 of 8 µM. This IC50 is about 4.4-fold lower than that of the compound before.

For `COc1ccc(OC)c2c(Nc3ccc4cn[nH]c4c3)c(C#N)cnc12` [Example 138, 4-(1H-Indazol-6-ylamino)-5,8-dimethoxy-quinoline-3-carbonitrile], the IC50 was more than 100 µM.

`COc1ccc2ncc(C#N)c(Nc3ccc4cn[nH]c4c3)c2c1` [Example 141, 4-(1H-Indazol 6-ylamino)-6-methoxy-quinoline-3-carbonitrile]: inhibition was half-maximal at 3 µM (IC50).

On to `COc1cc2ncc(C#N)c(Nc3ccc4cn[nH]c4c3)c2cc1OC` [Example 102, 6,7-Dimethoxy-4-(1H-indazol-6-ylamino)-quinoline-3-carbonitrile], for which the midpoint of inhibition, the IC50, lay at 0.5 µM. Against the preceding compound, the IC50 is about 6-fold lower.

Still in this assay, the particulars now being: MBP or Myc peptide substrate, pH 7.4; hydrochloride.
In the case of `COc1cc2ncc(C#N)c(Nc3ccc4[nH]nnc4c3)c2cc1OCCCN1CCOCC1` [Example 140, 4-(3H-Benzotriazol-5-ylamino)-7-methoxy-6-(3-morpholin-4-yl-proloxy)-quinoline-3-carbonitrile hydrochloride], the IC50 was 22 µM and 15 µM.
